Measurements taken from patent publication US9926298B2, “Heterocyclic compounds and use thereof” (National Health Research Institutes, priority 2014, dated 2018).

Assays:
[1] = test system: Limb Ischemia in Mice; test: Limb ischemia in mice; type: in vivo, ICR mice; conditions: 6 mg/kg/d subcutaneous, twice a week, laser Doppler perfusion, seven weeks
Protocol: Unilateral hindlimb ischemia was induced in ICR mice by ligating and excising the right femoral artery. Briefly, animals were anesthetized by an intraperitoneal injection of Xylocaine (2 mg/kg of body weight) plus Zoletil (i.e., the dissociative anesthetic Tiletamine/Zolazepam at a ratio of 1:1; 5 mg/kg of body weight). The proximal and distal portions of the femoral artery were ligated with a silk thread, and a 0.2 centimeter section of the blood vessel was removed. Hindlimb blood perfusion was measured with a laser Doppler perfusion imager system (Moor Instruments Limited, Devon, UK) before and after the surgery and was then followed on a weekly basis. Animals were subcutaneously treated with compound 4 (6 mg/kg/d, twice a week) in saline after surgery. The animals were sacrificed by cervical dislocation without sedation at the end of the seven experimental weeks. To avoid the influence of ambient light and temperature, the results are expressed as the ratio of perfusion in the right (ischemic) versus left (non-ischemic) limb.

[2] = test system: Ischemic Stroke in Rats; test: Ischemic stroke in rats (MCAo); type: in vivo, male Sprague-Dawley rats; conditions: 1 mg/kg/d i.p. for 5 days; for horizontal movement number compared with vehicle-treated animals / vertical movement number: day 2 after MCAo; for volume of infarction as compared to vehicle (TTC staining): day 5 after MCAo
Protocol: Adult male Sprague-Dawley rats (250-300 g) were anesthetized with chloral hydrate (400 mg/kg i.p.). The right middle cerebral artery was occluded (MCAo) and bilateral common carotids (CCAs) were clamped for 60 minutes to generate focal ischemia in the right cerebral cortex. Core body temperature was maintained at 37° C.
Compounds 62 and 63 and a vehicle were administered to the rats at a dose of 1 mg/kg/d (i.p.) for 5 consecutive days. The first dose was given at 90 minutes after MCAo. Each animal was placed in a 42×42×31 cm activity monitor for 1 h on day 2 after MCAo. The monitor contained 16 horizontal and 8 vertical infrared sensors spaced 2.5 cm apart. Locomotor activity was calculated using the number of infrared beams broken by the animals.
TTC staining was performed on day 5 after MCAo to determine infarction size as described previously in Brain Research, volume 1116, issue 1, 2006, pages 159-165. Briefly, rats were decapitated and the brains were removed and sliced into 2.0-mm-thick sections. The brain slices were incubated in a 2% TTC solution (Sigma-Aldrich) for 15 minutes at room temperature and then transferred into a 4% paraformaldehyde solution for fixation. The area of infarction in each slice was measured with a digital scanner and Imagetools programs (University of Texas Health Sciences Center). The volume of infarction in each animal was obtained from the product of average slice thickness (2 mm) and sum of infarction areas in all brain slices examined.

| SMILES | improvement of blood flow in the ischemic hindlimb as compared with the vehicle control [1] | horizontal movement number compared with vehicle-treated animals [2] | vertical movement number [2] | volume of infarction as compared to vehicle (TTC staining) [2] |
| --- | --- | --- | --- | --- |
| c1ccc2c(NC3CCNCC3)nc(NCc3cn(CCCNCCCNC4CCCCC4)nn3)nc2c1 [Compound 4] | 20-25% |  |  |  |
| N[C@@H](CCC(=O)N1CCC(Nc2nc(NCc3cn(CCCNCCCNC4CCCCC4)nn3)nc3ccccc23)CC1)C(=O)OCc1ccccc1 [Compound 62] |  | significant increase | significantly increased | significantly reduced |
| N[C@@H](CCC(=O)N1CCC(Nc2nc(NCc3cn(CCCNCCCNC4CCCCC4)nn3)nc3ccccc23)CC1)C(=O)O [Compound 63] |  | significant increase | significantly increased | significantly reduced |
